Experimental data as given in patent US5424185A, “Human high-affinity neurotransmitter uptake system” (Baylor College of Medicine, priority 1990, dated 1995).
Where two headings read alike, the source gives them in different places.

How the values were obtained:
C6 glioblastoma = conditions: read-out: Km, C6 glioblastoma; membrane preparation, published value; cited from earlier work
[1] = test system: human brain (post-mortem); conditions: membrane preparation, published value, cited from earlier work
monkey retina = conditions: tissue, published value, cited from earlier work
[2] = test system: human glycine transporter (L-GLY2 cells)
Protocol: The incubation was conducted for 40 min at 37° C. Each well was washed three times at room temperature with excess Ringer's buffer and then incubated with 50 μl of alkaline phosphatase buffer (100 mM Tris, pH 9.5, 100 mM NaCl, 10 mMMgCl2, 20 μg/ml saponin, 3.2 mg/ml p-nitrophenyl phosphate) for 1-2 hours at 37° C. The phosphatase assay was used as a relative assessment of cell number, and used to normalize the level of [^3 H]glycine associated with each well as described above. The phosphatase reading for each assayed well was plotted versus its corresponding level of [^3 H]glycine-retention.
(§1) L-GLY2 and L-M cells were assayed for the uptake of [^3 H] glycine (0.1 μM) in the presence or absence of competing, unlabelled amino acids or neurotransmitters. Each competing ligand was present in 1000-fold molar excess (100 μM) of the [^3 H] glycine. […] The assays were performed at 37° C. for 40 minutes. Alanine, proline and serine, each at 1 mM, was added to the Ringer's buffer for all assays.
(§2) At each concentration of [^3 H] glycine used, both uptake levels were converted to picomole-equivalents of [^3 H] glycine, then normalized by both length of assay and corresponding protein contents to arrive at the uptake velocity values. The nonspecific uptake velocity was then subtracted from the total uptake velocity to yield the specific uptake velocity. The specific uptake velocities and their corresponding [^3 H] glycine concentrations were analyzed by both Michaelis-Menten and Lineweaver-Burk transformations of the resulting kinetic profiles. For both analyses, data-points were fitted to either linear or logarithmic functions by computerized algorithms.

rat brain = conditions: membrane preparation, published value, cited from earlier work
mouse cerebral cortex = conditions: membrane preparation, published value, cited from earlier work
goldfish retina = conditions: tissue, published value, cited from earlier work
frog spinal cord = conditions: membrane preparation, published value, cited from earlier work
frog retina = conditions: read-out: Km, frog retina; tissue, published value; cited from earlier work
chicken spinal cord = conditions: membrane preparation, published value, cited from earlier work
rat spinal cord = conditions: membrane preparation, published value, cited from earlier work
Y79 retinoblastoma = conditions: cell, published value, cited from earlier work
L-M cells = conditions: ligand 100 μM (1000-fold excess), 0.1 μM [3H]glycine, 40 min, 37° C.
Protocol: as §1, §2

frog brain = conditions: membrane preparation, published value, cited from earlier work
[3] = test system: GABA transporter (L-GAB1 cells); test: [3H]GABA uptake by L-GAB1 cells; format: cell-based, human; conditions: competitor at 100-fold excess relative to [3H]GABA
Protocol: Using concentrations of [^3 H] GABA ranging from 2 to 500 μM, the kinetic profile of GABA uptake was determined for both L-GAB1 and L-M cells. The initial velocity of GABA uptake was measured and plotted against the corresponding [^3 H] GABA concentration for both cell lines. […] The velocity profile for L-GAB1 cells was subtracted by that of L-M cells, and the resulting data used for a double-reciprocal plot of velocity-^1 against GABA concentration-^1. The velocity profile for L-M cells was also transformed into a double-reciprocal plot.
Several known inhibitors of high-affinity GABA uptake were used to examine their efficacies in inhibiting [^3 H] GABA uptake by L-GAB1 cells. […] Each of these agents was used at several concentrations ranging from 1 to 100 μM in assays of [^3 H] GABA uptake by L-GAB1 cells. […] GABA uptake by L-GAB1 cells.
L-GAB1 cells were also analyzed in terms of their ligand-specificity in the high-affinity GABA uptake mechanism.

[4] = test system: mouse pons-medulla-spinal cord; conditions: membrane preparation, published value, cited from earlier work
chicken brain = conditions: membrane preparation, published value, cited from earlier work

SMILES: NCC(=O)O [glycine]
- Km (C6 glioblastoma): 100 µM
- Vmax, human brain (post-mortem) [1]: 55 ± 25 pmol/mg/min
- Km ([1]; read-out: Km, human brain (post-mortem)): 35 ± 19 µM
- Km (monkey retina; read-out: Km, monkey retina): 2.5 ± 0.9 µM
- Vmax, monkey retina (monkey retina): 3.30 ± 1.60 pmol/mg/min
- Vmax of glycine uptake, L-GLY2 ([2]; 50 nM to 5 μM [3H]glycine, 10 min, Lineweaver-Burk): 10.19±3.32 pmol/min/mg protein
- Vmax, L-GLY2 ([2]; Table IV): 10.19 ± 3.32 pmol/mg/min
- effect of competing ligand on [3H]glycine uptake, L-GLY2 ([2]; ligand 100 μM (1000-fold excess), 0.1 μM [3H]glycine, 40 min, 37° C., 1 mM alanine, proline, serine): reduced [^3 H] glycine transport into L-GLY2 cells to the same level as that of L-M cells
- Km ([2]; read-out: Km, L-GLY2, Table IV): 1.5 ± 0.2 µM
- Km ([2]; read-out: apparent Km of glycine uptake, L-GLY2, 50 nM to 5 μM [3H]glycine, 10 min, Lineweaver-Burk): 1.5 µM
- Vmax, rat brain (rat brain): 0.48 ± 0.07 pmol/mg/min
- Km (rat brain; read-out: Km, rat brain): 34 ± 1.3 µM
- Vmax, mouse cerebral cortex (mouse cerebral cortex): 340 ± 70 pmol/mg/min
- Km (mouse cerebral cortex; read-out: Km, mouse cerebral cortex): 15.2 ± 2 µM
- Km (goldfish retina; read-out: Km, goldfish retina): 8.08 ± 0.7 µM
- Vmax, goldfish retina (goldfish retina): 8.71 ± 0.54 pmol/mg/min
- Vmax, frog spinal cord (frog spinal cord): 1.52 ± 0.03 pmol/mg/min
- Km (frog spinal cord; read-out: Km, frog spinal cord): 29 ± 0.7 µM
- Km (frog retina): > 4.7 µM
- Vmax, chicken spinal cord (chicken spinal cord): 0.65 ± 0.02 pmol/mg/min
- Km (chicken spinal cord; read-out: Km, chicken spinal cord): 41.8 ± 1 µM
- Vmax, rat spinal cord (rat spinal cord): 1.43 ± 0.02 pmol/mg/min
- Km (rat spinal cord; read-out: Km, rat spinal cord): 46.5 ± 1.6 µM
- Vmax, Y79 retinoblastoma (Y79 retinoblastoma): 138.40 ± 12.40 pmol/mg/min
- Km (Y79 retinoblastoma; read-out: Km, Y79 retinoblastoma): 24.4 ± 2.6 µM
- effect of competing ligand on [3H]glycine uptake, L-M (L-M cells): not significantly inhibited
- Vmax, frog brain (frog brain): 1.14 ± 0.06 pmol/mg/min
- Km (frog brain; read-out: Km, frog brain): 24.8 ± 1.4 µM
- ligand-specificity of [3H]GABA uptake by L-GAB1 cells [3]: not inhibited
- Vmax, mouse pons-medulla-spinal cord [4]: 3100 ± 100 pmol/mg/min
- Km ([4]; read-out: Km, mouse pons-medulla-spinal cord): 27.6 ± 2.6 µM
- Vmax, chicken brain (chicken brain): 0.32 ± 0.01 pmol/mg/min
- Km (chicken brain; read-out: Km, chicken brain): 37 ± 2 µM
